The experiment deals with T1, GAβ-dependent amyloid fibril formation (Human Aβ1-40 + GM1-containing liposome) (Homo sapiens, UniProt P05067).
T1 construct: Human Aβ1-40 (cat. #4307-v, prepared by Peptide Institute); purchased Peptide Institute 4307-v
Description: Thioflavin T (ThT) assay of GAβ-dependent amyloid fibril formation (Aβ1-40 with GM1-containing liposome). The class given is biochemical. The gist of the method: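 Human Aβ1-40 (75 μM stock) pre-incubated 10 min at room temperature with compound (75 or 15 μM solution), then GM1-containing cholesterol/sphingomyelin liposome added and incubated 37° C, 18 hours. Fibrils quantified by ThT fluorescence (ex 430/em 490 nm, pH 8.5 glycine buffer); inhibition as ratio to compound-free control.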

Setting [1] is: @25 μM, read-out: ThT Inhibitory activity (% inhibition).
[2] abbreviates: inhibition rate against amyloid fibril formation, final concentration of the compound 25 μM, read-out: Inhibitory activity ABC evaluation.

The structures appear in SMILES notation. Read-outs that look alike come from different tables or passages of the source.

T1 sequence (P05067 672-711 limits assumed): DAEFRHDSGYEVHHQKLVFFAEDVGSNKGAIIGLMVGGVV

`COc1ccc2nc(-c3noc([C@H](CO)NC(=O)c4ccc(F)cc4)n3)sc2c1` [Compound 235, 4-fluoro-N-[(1S)-2-hydroxy-1-[3-(6-methoxy-1,3-benzothiazol-2-yl)-1,2,4-oxadiazol-5-yl]ethyl]benzamide]: the inhibition at 25 µM was 63% under setting [1] and 40 to 80% under setting [2]. For `O=C(NCCc1nc(-c2c[nH]c3ccccc23)no1)c1ccc(Cl)cc1` [Compound 71, N-[2-{3-(1H-indol-3-yl)-1,2,4-oxadiazol-5-yl}ethyl]-4-chloro-benzamide], the inhibition at 25 µM under setting [2] lay in the range of 40 to 80%. Regarding `O[C@@H]1C[C@@H](c2nc(-c3ccc(OC(F)(F)F)cc3)no2)N(Cc2ccc(Cl)cc2)C1` [Compound 77, (3R,5S)-1-(4-chlorobenzyl)-5-[3-{4-(trifluoro-methoxy)phenyl}-1,2,4-oxadiazol-5-yl]pyrrolidin-3-ol], the inhibition at 25 µM under setting [2] lay within 40 to 80%. Still for that read-out and setting: then `COc1ccc(-c2noc(C(C)(C)N(C)C(=O)c3ccc(Cl)cc3)n2)cc1` [Compound 22, 4-chloro-N-[2-{3-(4-methoxyphenyl)-1,2,4-oxadiazol-5-yl}propan-2-yl]-N-methyl-benzamide], with less than 40%; and `O=C(N[C@@H](CO)c1nc(-c2ccc(OCCN3CCOCC3)cc2)no1)c1ccccc1` [Compound 158, N-[(1S)-2-hydroxy-1-(3-{4-[2-(morpholin-4-yl)ethoxy]phenyl}-1,2,4-oxadiazol-5-yl)ethyl] benzamide], with 40 to 80%; and `O=C(N[C@@H](CO)c1nc(-c2ccc(C(F)(F)F)cc2)no1)c1ccc(Oc2ccccc2)cc1` [Compound 201, N-[(1S)-2-hydroxy-1-{3-[4-(trifluoromethyl)phenyl]-1,2,4-oxadiazol-5-yl}ethyl]-4-phenoxybenzamide], with greater than 80%. As for `O=C(N[C@@H](CO)c1nc(-c2ccc(C(F)(F)F)cc2)no1)c1ccc(Cl)cc1F` [Compound 236, 4-chloro-2-fluoro-N-[(1S)-2-hydroxy-1-{3-[4-(trifluoromethyl)phenyl]-1,2,4-oxadiazol-5-yl}ethyl]benzamide], under setting [2], the inhibition at 25 µM is greater than 80%. The same measure, in the same setting: then `O=C(N[C@@H](CO)c1nc(-c2ccc3[nH]ccc3c2)no1)c1ccc(F)cc1` [Compound 175, 4-fluoro-N-[(1S)-2-hydroxy-1-[3-(1H-indol-5-yl)-1,2,4-oxadiazol-5-yl]ethyl] benzamide], with greater than 80%; and `O=C(/C=C/c1ccc(F)cc1)N[C@@H](CO)c1nc(-c2ccc(C(F)(F)F)cc2)no1` [Compound 208, (2E)-3-(4-fluorophenyl)-N-[(1S)-2-hydroxy-1-{3-[4-(trifluoromethyl)phenyl]-1,2,4-oxadiazol-5-yl}ethyl]prop-2-enamide], with 40 to 80%.

In the case of `O=C(N[C@@H](CO)c1nc(-c2ccc3ccccc3n2)no1)c1ccc(F)cc1` [Compound 225, 4-fluoro-N-[(1S)-2-hydroxy-1-[3-(quinolin-2-yl)-1,2,4-oxadiazol-5-yl]ethyl] benzamide], the inhibition at 25 µM under setting [2] was in the range of 40 to 80%. `COc1ccc(-c2noc([C@H](CO)NC(=O)c3ccc(Cl)cc3)n2)cc1` [Compound 125, (S)-4-chloro-N-(2-hydroxy-1-(3-(4-methoxyphenyl)-1,2,4-oxadiazol-5-yl)ethyl)benzamide]: under “@5 μM, read-out: ThT Inhibitory activity (% inhibition)”, the inhibition at 5 µM came out at 59%. For the same compound, the inhibition at 25 µM under setting [1] stood at 88% and the inhibition at 25 µM under setting [2] is greater than 80%. For `O=C(N[C@@H](CO)c1nc(-c2ccc(F)cc2Cl)no1)c1ccc(F)cc1` [Compound 219, N-[(1S)-1-[3-(2-chloro-4-fluorophenyl)-1,2,4-oxadiazol-5-yl]-2-hydroxyethyl]-4-fluorobenzamide], the inhibition at 25 µM under setting [2] was less than 40%. Still for that read-out and setting: the result for `O=C1CC[C@@H](c2nc(-c3ccc(OC(F)(F)F)cc3)no2)N1C(=O)c1ccc(Cl)cc1` [Compound 84, (S)-1-(4-chloro-benzoyl)-5-[3-{4-(trifluoromethoxy)phenyl}-1,2,4-oxadiazol-5-yl]pyrrolidin-2-one] reads 40 to 80%; that for `CN(C)c1ccc(-c2noc([C@H](CO)NC(=O)c3ccccc3)n2)cc1` [Compound 150, N-[(1S)-1-{3-[4-(dimethylamino)phenyl]-1,2,4-oxadiazol-5-yl}-2-hydroxyethyl] benzamide], greater than 80%. Still for that read-out and setting: then `CCN(CC)CCOc1ccc(C(=O)N[C@@H](CO)c2nc(-c3ccc(OC(F)(F)F)cc3)no2)cc1` [Compound 171, 4-[2-(diethylamino)ethoxy]-N-[(1S)-2-hydroxy-1-{3-[4-(trifluoromethoxy)phenyl]-1,2,4-oxadiazol-5-yl}ethyl] benzamide], with less than 40%; and `O=C(N[C@@H](CO)c1nc(-c2cnc3ccccc3c2)no1)c1ccc(F)cc1` [Compound 173, 4-fluoro-N-[(1S)-2-hydroxy-1-[3-(quinolin-3-yl)-1,2,4-oxadiazol-5-yl]ethyl] benzamide], with less than 40%. Same read-out and setting: then `O=C(c1ccc(Cl)cc1)N1CC[C@H](O)[C@H]1c1nc(-c2ccc(OC(F)(F)F)cc2)no1` [Compound 131, (4-chlorophenyl) ((2S,3S)-3-hydroxy-2-(3-(4-(trifluoro-methoxy)phenyl)-1,2,4-oxadiazol-5-yl)pyrrolidin-1-yl)methanone], with 40 to 80%; and `O=C(N[C@H](CO)c1nc(-c2ccc(OC(F)(F)F)cc2)no1)c1ccc(Cl)cc1` [Compound 83, (R)-4-chloro-N-(2-hydroxy-1-[3-{4-(trifluoromethoxy)phenyl}-1,2,4-oxadiazol-5-yl]ethyl)benzamide], with greater than 80%; and `O=C1CC(c2nc(-c3ccncc3)no2)CN1c1ccc(Cl)cc1` (stereo not shown) [Compound 44, 1-(4-chlorophenyl)-4-{3-(pyridin-4-yl)-1,2,4-oxadiazol-5-yl} pyrrolidin-2-one], with less than 40%.

As for `O=C(N[C@@H](CO)c1nnc(-c2ccc(OC(F)(F)F)cc2)o1)c1ccc(Cl)cc1` [Compound 104, (S)-4-chloro-N-(2-hydroxy-1-{5-[4-(trifluoromethoxy)phenyl]-1,3,4-oxadiazol-2-yl}ethyl)benzamide], the inhibition at 25 µM under setting [1] stood at 75% and the inhibition at 25 µM under setting [2] was in the range of 40 to 80%. With `O=C(N[C@@H](CO)c1nc(-c2ccc(C(F)(F)F)cc2)no1)c1ccc(Cl)cn1` [Compound 239, 5-chloro-N-[(1S)-2-hydroxy-1-{3-[4-(trifluoromethyl)phenyl]-1,2,4-oxadiazol-5-yl}ethyl]pyridine-2-carboxamide], the inhibition at 25 µM under setting [1] came to 64% and the inhibition at 25 µM under setting [2] lay within 40 to 80%. Turning to `O=C1CC(c2nc(-c3ccc(O)cc3)no2)CN1c1ccc(Cl)cc1` (stereo not shown) [Compound 41, 1-(4-chlorophenyl)-4-{3-(4-hydroxyphenyl)-1,2,4-oxadiazol-5-yl}pyrrolidin-2-one], under setting [2], the inhibition at 25 µM lay in the range of 40 to 80%. Take `O=C(N[C@@H](CO)c1nc(-c2c[nH]c3ccccc23)no1)c1ccc(F)cc1` [Compound 211, 4-fluoro-N-[(1S)-2-hydroxy-1-[3-(1H-indol-3-yl)-1,2,4-oxadiazol-5-yl]ethyl]benzamide]: the inhibition at 25 µM runs as follows: under setting [1], 89%; under setting [2], greater than 80%. Regarding `O=C(N[C@@H](CO)c1nc(-c2ccoc2Cl)no1)c1ccc(F)cc1` [Compound 255, N-[(1S)-1-[3-(2-chlorofuran-3-yl)-1,2,4-oxadiazol-5-yl]-2-hydroxyethyl]-4-fluorobenzamide], under setting [2], the inhibition at 25 µM lay in the range of 40 to 80%. As for `O=C1CC(c2ncc(-c3ccc(OC(F)(F)F)cc3)[nH]2)CN1c1ccc(Cl)cc1` (stereo not shown) [Compound 124, 1-(4-chlorophenyl)-4-{5-[4-(trifluoromethoxy)phenyl]-1H-imidazol-2-yl}pyrrolidin-2-one], the inhibition at 25 µM under setting [2] was less than 40%. For the compound `N#Cc1ccc(C(=O)N[C@@H](CO)c2nc(-c3ccc(O)c(F)c3)no2)cc1` [Compound 100, (S)-4-cyano-N-(1-(3-(3-fluoro-4-hydroxyphenyl)-1,2,4-oxadiazol-5-yl)-2-hydroxy-ethyl)benzamide], the inhibition at 25 µM under setting [2] was 40 to 80%.

For `O=C(N[C@@H](CO)c1nc(-c2ccc(O)c(F)c2)no1)c1ccc(Cl)cc1` [Compound 99, (S)-4-chloro-N-(1-(3-(3-fluoro-4-hydroxyphenyl)-1,2,4-oxadiazol-5-yl)-2-hydroxy-ethyl)benzamide], the inhibition at 25 µM under setting [2] was in the range of 40 to 80%. Still for that read-out and setting: then `O=C(N[C@@H](CO)c1nc(-c2ccc(OC(F)(F)F)cc2)no1)c1c[nH]c2cc(Cl)ccc12` [Compound 76, (S)-6-chloro-N-(2-hydroxy-1-[3-{4-(trifluoro-methoxy)phenyl}-1,2,4-oxadiazol-5-yl}ethyl)-1H-indole-3-carboxamide], with 40 to 80%. Still for that read-out and setting: then `O=C(N[C@@H](CO)c1nc(-c2ccc(Cl)[nH]2)no1)c1ccc(F)cc1` [Compound 251, N-[(1S)-1-[3-(5-chloro-1H-pyrrol-2-yl)-1,2,4-oxadiazol-5-yl]-2-hydroxyethyl]-4-fluorobenzamide], with 40 to 80%. As for `O=C(N[C@@H](CO)c1nc(-c2ccc(C(F)(F)F)cc2)no1)c1c(F)cccc1F` [Compound 197, 2,6-difluoro-N-[(1S)-2-hydroxy-1-{3-[4-(trifluoromethyl)phenyl]-1,2,4-oxadiazol-5-yl}ethyl]benzamide], the inhibition at 25 µM under setting [1] was determined as 70% and the inhibition at 25 µM under setting [2] was in the range of 40 to 80%. Turning to `O=C(N[C@@H](CO)c1nc(-c2c[nH]c3ccc(Cl)cc23)no1)c1ccc(Cl)cn1` [Compound 254, 5-chloro-N-[(1S)-1-[3-(5-chloro-1H-indol-3-yl)-1,2,4-oxadiazol-5-yl]-2-hydroxyethyl] pyridine-2-carboxamide], under setting [2], the inhibition at 25 µM lay within 40 to 80%. In the case of `O=C(N[C@@H](CO)c1nc(-c2ccc(C3(F)COC3)cc2)no1)c1ccc(F)cc1` [Compound 190, 4-fluoro-N-[(1S)-1-{3-[4-(3-fluorooxetan-3-yl)phenyl]-1,2,4-oxadiazol-5-yl}-2-hydroxyethyl] benzamide], the inhibition at 25 µM runs as follows: under setting [1], 67%; under setting [2], 40 to 80%.

The values above are taken from patent US10538516B2, “Oxadiazole derivative and pharmaceutical containing same” (National Center for Geriatrics and Gerontology, priority 2015, dated 2020).
